The results in this text go back to US6337316B1, “Pharmaceutical compositions thereof, and methods of using same” (Applied Research Systems ARS Holding N.V., priority 1997, dated 2002).

Bridge positions count the residues as written; N and C are the ends. Ends that are not written are not given here.

Assay [1] has as its system binding of CTLA-4Ig to B7 on Cess B cells. Briefly: CTLA-4Ig/B7 binding assay on Cess B cells by FACS. To be noted: for Binding Assay (effect on CTLA-4Ig binding to Cess B cells): FACS, assays of 3/24, 3/25, 4/5, 4/25, one symbol per assay; for effect on CTLA-4Ig binding, retest in the Cess B binding assay: retest of positives from primary screening. Details: key to Binding Assay (effect on CTLA-4Ig binding to Cess B cells): −: no change in binding; +: a minor change of <10% in binding; ++: a change of >20% in binding. As for the experimental part:
+++ was assigned if the peptide tested gave >50% change in cpm in a dose dependent fashion. In addition to the MLR, these 34 peptides were also evaluated in a CTLA-4Ig/B7 binding assay in which the ability of these peptides to affect the binding of CTLA-4Ig to B7 on Cess B cells was examined by FACS analysis.
As with the MLR, a + or − was assigned to each peptide depending on its ability to effect CTLA-4Ig binding to Cess B cells; where − represents no change in binding, + represents a minor change of <10% in binding, and a ++ represents a change of >20% in binding.
On the technique in general: A flow cytometer gives signals particle by particle.

The test system of assay [2] is lymphocyte proliferation in the human MLR. The assay is classed as cell-based. To be noted: for Human MLR (ability to inhibit lymphocyte proliferation, cpm): peptide 12.5 to 100 μM, assays of 1/24, 1/31, 3/6, 4/17, 5/2, one symbol per assay; for effect on the MLR, retest: two MLRs, peptide by itself, concentrations up to 200 μM. As for the experimental part: Whole blood from donors was obtained from Interstate Blood Bank, Memphis, Tenn. Blood specimens were handled in a biosafety level 2 containment facility as recommended for potentially infectious blood specimens in the CDC/NIH manual Biosafety in Microbiological and Biomedical Laboratories; 3rd edition, 1993, page 10. Peripheral blood mononuclear cells (PBMC) were separated from red blood cells and granulocytes by ficoll-hypaque purification. Whole peripheral blood was diluted 1:2 in PBS and 30 ml was overlayed onto 15 ml of ficoll-hypaque in 50 ml polypropylene tubes. The tubes were spun at 400×g for 30 min at 25° C. Following centrifugation, the interface between the upper plasma layer and the lower ficoll layer was collected, cells washed in RPMI-1640 2×, and viable counts determined using trypan blue. Cells to be used as responders in the assay were stored on ice until mitomycin C treatment of stimulator cells was completed.
PBMC, isolated as described above, to be used as stimulators in the assay were adjusted to 2-4×10^6 cells/ml in complete medium (RPMI 1640 containing 10% heat-inactivated human AB serum, 2 mM glutamine, 50 μM 2-mercaptoethanol and 100 U/ml penicillin-100 μg/ml streptomycin), and treated with mitomycin C (25 μg/ml) for 30 min in a 37° C. water bath. Following treatment, cells were washed with S volumes of complete medium 3×, and viable counts determine using trypan blue. To set up autologous stimulation controls some responder cells were also treated with mitomycin C as mentioned above.
Purified CTLA-4Ig fusion protein was produced, as described in Steurer et al. 1995, from a NS-1 cell line kindly donated by Dr. T. Strom (Beth Israel Hospital, Boston, Mass.) as a 1 mg/ml solution in sterile PBS. The protein was stored frozen at −80° C. Upon thawing, the aliquot was stored at 4° C. Purified peptides were lyophilized according to known procedures. Peptides were reconstituted in sterile PBS, pH 7.4 at 2 mM concentration, aliquoted in microfuge cubes and stored frozen at −20° C. For the assay, an aliquot of the peptide was thawed and diluted to 200 μM in complete medium.
For the one-way allogeneic mixed lymphocyte response (MLR) assay, responder cells were plated at 10^6 cells/well, and stimulator cells at 5×10^4 cells/well in 96-well round bottom plates. Cells were incubated with serial dilutions of the anti-CD4 Ab Leu 3A (1 μg/ml-0.06 μg/ml) in triplicate, or an isotype-matched control Ab. Cyclosporin A at 1 μg/ml was used as an additional control.
CTLA-4 Ig was serially diluted an.4 tested from 10 μg/ml to 0.15 μg/ml. Peptides were tested either directly or in the presence of a constant spiked-in dose of CTLA-4 Ig at 0.5 μg/ml. The plates were incubated at 37° C. in a humidified 5% CO2 atmosphere for 7 days.
Proliferation of the cells was determined by pulsing the wells with ^3H-Tdr (1 μCi/well) for the last 18 h of the assay. Plates were harvested using a Tomtec -late harvester and the counts incorporated determined using a Wallac microbetaplate plus reader.
A total of 34 peptides were tested for inhibition of lymphocyte proliferation in the human MLR. Each peptide was tested in a MLR at doses ranging from 12.5 to 100 μM. The activity of each peptide was identified by assigning a + and − tone peptide depending on its ability to inhibit lymphocyte proliferation in the MLR (cpms).

The target of assay [3] is B7 on Cess B cells. The assay is described as follows: FACS competition with CTLA-4Ig on Cess B cells; one grade per run; - no change, + <10% change, ++ >20% change.
Assay [4] concerns the target B7 on Cess B cells. The assay is described as follows: cell-based or functional assay.

For the molecule “CRQADSQVTEC (disulfide 1-11 (inferred)) [AT 128.1]”, in assay [1], the “Binding Assay (effect on CTLA-4Ig binding to Cess B cells)” value is listed as “+ (a minor change of <10% in binding)” and the “effect on CTLA-4Ig binding, retest in the Cess B binding assay” value (“effect on CTLA-4Ig binding, retest” for short) is given as “no effect”. For the same molecule, in assay [2], the “Human MLR (ability to inhibit lymphocyte proliferation, cpm)” value is listed as “++, −” and the “effect on the MLR, retest” value is on record as “none of these peptide by themselves had any consistent effect”.
As to “CSKTGFNC (disulfide 1-8 (inferred)) [AT 115.1]”, the “Binding Assay (effect on CTLA-4Ig binding to Cess B cells)” value in assay [1] is recorded as “−”. For the same molecule, in assay [2], the “Human MLR (ability to inhibit lymphocyte proliferation, cpm)” value is given as “− (all concentrations of peptide tested gave <15% change in cpm)”.
For the molecule “CSPNQC (disulfide 1-6 (inferred)) [AT 135.1]”, in assay [1], the “Binding Assay (effect on CTLA-4Ig binding to Cess B cells)” value is “++ (a change of >20% in binding)” and the “effect on CTLA-4Ig binding, retest” value is recorded as “no effect”. In assay [2], the “Human MLR (ability to inhibit lymphocyte proliferation, cpm)” value is reported as “+/−, −” and the “effect on the MLR, retest” value was “none of these peptide by themselves had any consistent effect”.
As to “CSSGNQVC (disulfide 1-8 (inferred)) [AT 132.1]”, the “Binding Assay (effect on CTLA-4Ig binding to Cess B cells)” value in assay [1] is “+, −”. Besides, in assay [2], the “Human MLR (ability to inhibit lymphocyte proliferation, cpm)” value is listed as “+, −, −”.
With “CSSPNQVC (disulfide 1-8 (inferred)) [AT 133.1]”, in assay [1], the “Binding Assay (effect on CTLA-4Ig binding to Cess B cells)” value is “++, −” and the “effect on CTLA-4Ig binding, retest” value is “no effect”. In addition, in assay [2], the “Human MLR (ability to inhibit lymphocyte proliferation, cpm)” value is given as “++, +” and the “effect on the MLR, retest” value is recorded as “none of these peptide by themselves had any consistent effect”.
HVAQPA [AT 136.1]: in assay [1], the “Binding Assay (effect on CTLA-4Ig binding to Cess B cells)” value is recorded as “+++, +” and the “effect on CTLA-4Ig binding, retest” value is “no effect”. In assay [2], the “Human MLR (ability to inhibit lymphocyte proliferation, cpm)” value was “++, +, −” and the “effect on the MLR, retest” value is on record as “none of these peptide by themselves had any consistent effect”.
With HVEQPA [AT 137.1], the “Binding Assay (effect on CTLA-4Ig binding to Cess B cells)” value in assay [1] is on record as “+/−, −”. The “Human MLR (ability to inhibit lymphocyte proliferation, cpm)” value in assay [2] was “−, +”.
As for HVEQPA-OH [AT 125.1], the “Binding Assay (effect on CTLA-4Ig binding to Cess B cells)” value in assay [1] was “−, +”. Moreover, in assay [2], the “Human MLR (ability to inhibit lymphocyte proliferation, cpm)” value is “−, −”.
For “KCSYNLFSREFC (not fully specified (bridges); cysteine pairing not given here) [AT 106.1]”, in assay [1], the “Binding Assay (effect on CTLA-4Ig binding to Cess B cells)” value was “++, ++” and the “effect on CTLA-4Ig binding, retest” value is “no effect”. Moreover, in assay [2], the “Human MLR (ability to inhibit lymphocyte proliferation, cpm)” value is reported as “++, +, +, +/−” and the “effect on the MLR, retest” value is on record as “none of these peptide by themselves had any consistent effect”.
KILVKQS [AT 119.1]: the “Binding Assay (effect on CTLA-4Ig binding to Cess B cells)” value in assay [1] was “−”. Besides, in assay [2], the “Human MLR (ability to inhibit lymphocyte proliferation, cpm)” value is recorded as “−, +/−”.
With KYLVKQS [AT 120.1], the “Binding Assay (effect on CTLA-4Ig binding to Cess B cells)” value in assay [1] is on record as “−”. For the same molecule, in assay [2], the “Human MLR (ability to inhibit lymphocyte proliferation, cpm)” value is given as “−, +/−”.
Regarding KYLVKQS-OH [AT 122.1], the “Binding Assay (effect on CTLA-4Ig binding to Cess B cells)” value in assay [1] is “+, −”. Further, the “Human MLR (ability to inhibit lymphocyte proliferation, cpm)” value in assay [2] is “−, −”.
On to LDSAVEV [AT 116.1], for which the “Binding Assay (effect on CTLA-4Ig binding to Cess B cells)” value in assay [1] was “−”. Moreover, the “Human MLR (ability to inhibit lymphocyte proliferation, cpm)” value in assay [2] is on record as “− (all concentrations of peptide tested gave <15% change in cpm)”.
Taken in the same sequence, the figures for LDSAVEV-OH [AT 117.1] were “+ (a minor change of <10% in binding)” and “− (all concentrations of peptide tested gave <15% change in cpm)”.
Consider “NECTFCDD (not fully specified (bridges); cysteine pairing not given here) [AT 197.1]”, for which the “Binding Assay (effect on CTLA-4Ig binding to Cess B cells)” value in assay [1] was “−, −, −”. For the same molecule, the “Human MLR (ability to inhibit lymphocyte proliferation, cpm)” value in assay [2] is reported as “−, −, −”.
Consider “RKCLAYPPPYYCHH (not fully specified (bridges); cysteine pairing not given here) [AT 200.1]”, for which, in assay [1], the “Binding Assay (effect on CTLA-4Ig binding to Cess B cells)” value is reported as “−, −, −”. In addition, the “inhibition of the MLR, in words” value in assay [2] (control and linear peptides compared with AT 199) is recorded as “did not inhibit any of the MLRs as much as AT 199”. For the same molecule, in assay [2], the “Human MLR (ability to inhibit lymphocyte proliferation, cpm)” value is recorded as “−, −, −”.
Consider LDSAVEV-OH [AT 117.1], for which the percent change in CTLA-4Ig binding to B7 on Cess B cells (FACS) in assay [3] is less than 10%.
Take CSPNQC (disulfide 1-6 (inferred); not fully specified (C-terminus)) [AT 135.1]: the percent change in CTLA-4Ig binding to B7 on Cess B cells (FACS) in assay [3] is greater than 20%.
The same measure, in the same setting: the figure for CMYPPPYYRGGKC (disulfide 1-13 (inferred); not fully specified (C-terminus)) [AT 129.1] is greater than 20%.
CRQADSQVTEC (disulfide 1-11 (inferred); not fully specified (C-terminus)) [AT 128.1]: the percent change in CTLA-4Ig binding to B7 on Cess B cells (FACS) in assay [3] was less than 10%.
Consider RKCLMYPPPYYCHH (disulfide 3-12; not fully specified (C-terminus)) [AT 199.1], for which, in assay [4], the apparent IC50 of inhibition in the MLR fell in the range of 50 to 100 µM; the inhibition of human MLR by batch AT 199.2A at 100 µM, one MLR amounted to 50%; the inhibition of human MLR by batch AT 199.2A, another MLR worked out at 25%; the inhibition of human MLR by batch AT 199.3 at 100 µM, one MLR stood at 30%. Also, in assay [4], the inhibition of lymphocyte proliferation in a human MLR (AT 199, doses up to 100 µM) was determined as 70% and the inhibition of lymphocyte proliferation in a second human MLR (AT 199, doses up to 100 µM) worked out at 30%.
